SMILES strings stand for the structures.

What all share (assay type): cell-based
For one data set, the system named is U87-MG cells. Put plainly: Drug synergism experiment with DNA damaging agents (CCK-8). Conditions: 10 μM WX106, low concentrations of agent, 72 hours. On the procedure:
U87-MG cells were treated with WX106 and DNA damaging agents, temozolomide, cisplatin, and gemcitabine for 72 hours, respectively, and the proliferation level of cells was detected by CCK-8. Among them, the WX106 concentration was 10 μM, and the DNA damaging agent concentrations were 0.1 μM, 1 μM and 10 μM, respectively.

For another data set, the system named is SNU182. Put plainly: Cell growth competition experiment with Poma (CCK-8). To be noted: 1, 10 and 50 μM Poma with 10 μM WX106, 72 hours. On the procedure:
(§1) Principle: It is known that Poma is a compound that binds to CRBN, and Poma has no obvious inhibitory effect on adherent cells. If a compound depends on CRBN to inhibit cell growth, Poma's competitive binding to CRBN will definitely affect the cytotoxic effect of this compound. Cells were treated with 1, 10 and 50 μM of Poma and 10 μM of WX106 for 72 hours; cell viability was detected using the CCK-8 kit and cell survival rate was calculated [based on the formula], cell survival rate=[(As −Ab)/(Ac−Ab)]×100% (where As represents the absorbance of the experimental wells, Ac represents the absorbance of the control wells, and Ab represents the absorbance of the blank wells); finally, the effect of the competitive binding of Poma on the cytotoxicity of WX106 was calculated to determine whether the cytotoxicity of WX106 is dependent on CRBN. This step was applied to both SUN182 and Hep3B cells.
CC885 was the positive control in this experiment and is known to kill tumor cells in a CRBN-dependent manner.

A further data set concerns Hep3B cells. The data set is described as above. To be noted: 1, 10 and 50 μM Poma with 10 μM WX106, 72 hours. On the procedure: as §1
A further data set concerns the target CRBN (Homo sapiens, UniProt Q96SW2). Briefly: Protein degradation competition experiment (CC885-induced GSPT1 degradation). More on the design: endogenous in cells; host or cells: MOLT-4. Conditions: MOLT-4 cells, co-treated with 10 nM CC885, 4 hours, Western blot. On the procedure: MOLT-4 cells were co-treated with 0.1, 1 and 10 μM of WX106 and 10 nM of CC885 for 4 hours, and the protein level of GSPT1 was then detected by Western blot, with Poma (Pomalidomide, Selleck, S1567) acting as the positive control in the experiment. Cells were collected and denatured in protein loading buffer (50 mM Tris-HCL 2% SDS, 0.025% BPB, 1% β-mercaptoethanol, 10% glycerol) at 98° C. for 10 min. Proteins were separated by SDS-PAGE and transferred to a PVDF membrane (Millipore, IPVH00010), blocked with 5% skim milk (dissolved in TBST buffer), incubated with a primary antibody overnight at 4° C., and then incubated with a secondary antibody (Anti-rabbit IgG, HRP-linked Antibody, Cell Signaling, 7074S) at room temperature for 1 hour, and the bands on the membrane were detected by chemiluminescence (ECL chemiluminescence kit, Beyotime Biotechnology, P0018AM).
(A western blot detects proteins with antibodies after separation by electrophoresis.)

For a further data set, the target named is Wee1 (Homo sapiens, UniProt P30291). Put plainly: Detection of compounds that degrade Wee1 protein (Western blot). Conditions: MOLT-4 cells 10 μM 4 hours; U87-MG cells 1 μM 24 hours. The arrangement: endogenous in cells; host or cells: MOLT-4, U87-MG. On the procedure:
MOLT-4 cells were treated with 10 μM of the test compound for 4 hours and U87-MG cells were treated with 1 μM of the test compound for 24 hours, respectively. With GAPDH (Santa Cruz, sc-32233) as the internal reference protein, the protein level of Wee1 (Cell Signaling, 13084S) was detected using Western blot. Cells were collected, lysed with protein loading buffer (1M Tris-HCl, 10% SDS, 0.025% BPB), and denatured at 98° C. for 10 min before Western blot analysis. The main steps include: 1) Electrophoresis: The protein was separated by SDS-PAGE electrophoresis. During the electrophoresis, the voltage was adjusted to 80 v for about 30 min, and then the voltage was adjusted to 120 v until the bromophenol blue ran out of the gel. 2) Transfer to a membrane: the gel was stuck to a methanol-activated PVDF membrane using the method of wet transfer, and after the top and bottom layers were wrapped with filter paper, the membrane was placed into the gel holder cassette and fixed to the transfer tank, and transfer was performed at a constant current of 250 mA for 90 min; 3) Blocking: the PVDF membrane with trace protein was placed into the antibody incubation box, 5% skim milk was added to completely cover the PVDF membrane, and incubation was performed for 1 hour on a shaker at room temperature; 4) Incubation of the primary antibody: the primary antibody was prepared with 5% BSA (1:1000) and incubated overnight on a shaker at 4° C.; 5) Incubation of the secondary antibody: the membrane was washed thrice with TBST, the secondary antibody (prepared with 5% skim milk) was added (according to the species source of the primary antibody, different secondary antibodies with a dilution range of 1:3000-1:10000 were used), and incubation was performed on a shaker at room temperature for one hour; 5) Exposure: the membrane was washed thrice with TBST and the bands on the membrane were detected by chemiluminescence.

As for `N.N.[Cl][Pt][Cl]` [Cisplatin, cisplatin], the “proliferation of U87-MG cells, DNA damaging agent at low concentrations in combination with WX106” value in the data set on U87-MG cells is “significantly inhibit the proliferation of U87-MG cells”.

With `Nc1cccc2c1C(=O)N(C1CCC(=O)NC1=O)C2=O` (stereo not shown) [Poma, Pomalidomide], the “effect of Poma on the cytotoxicity caused by WX106” value in the data set with SNU182 and in the data set on Hep3B cells was “capable of competitively inhibiting the cytotoxicity caused by WX106” in each case. For the same molecule, on CRBN, the “effect on degradation of GSPT1 induced by CC885” value is listed as “could inhibit the pro-degradation of GSPT1 by CC885”.

Regarding `O=C1CCC(c2coc3ccc(NC(=O)c4ccnc(C(F)(F)F)c4)cc23)C(=O)N1` (stereo not shown) [WX002], on Wee1, the “pro-degradation effect on Wee1” value was “pro-degradation effect on Wee1”.

On to `Cc1ccc(C(=O)Nc2ccc3occ(C4CCC(=O)NC4=O)c3c2)cc1` (stereo not shown) [WX003], for which, at Wee1, the “pro-degradation effect on Wee1” value is “pro-degradation effect on Wee1”.

Regarding `O=C1CCC(c2coc3ccc(NC(=O)c4cccc(Cl)c4)cc23)C(=O)N1` (stereo not shown) [WX004], the “pro-degradation effect on Wee1” value at Wee1 is “pro-degradation effect on Wee1”.

Turning to `O=C1CCC(c2coc3ccc(NC(=O)c4ccccc4)cc23)C(=O)N1` (stereo not shown) [WX005], at Wee1, the “pro-degradation effect on Wee1” value is recorded as “pro-degradation effect on Wee1”.

Turning to `CCCC(=O)Nc1ccc2occ(C3CCC(=O)NC3=O)c2c1` (stereo not shown) [WX006], the “pro-degradation effect on Wee1” value at Wee1 is reported as “pro-degradation effect on Wee1”.

As to `Nc1ccn([C@@H]2O[C@H](CO)[C@@H](O)C2(F)F)c(=O)n1` [gemcitabine], the “proliferation of U87-MG cells, DNA damaging agent at low concentrations in combination with WX106” value with U87-MG cells is “significantly inhibit the proliferation of U87-MG cells”.

Source of the values: patent US12466816B2, “Fused cyclic compound capable of degrading protein and use thereof” (Medshine Discovery Inc., priority 2019, dated 2025).
